From the NIST ThermoML archive (doi:10.1021/je200673a)
Numbers after ± are expanded uncertainties.

Assay: molar heat capacity at constant pressure
Conditions: 101.33 kPa, Crystal, Vacuum adiabatic calorimetry

C(#Cc1ccccc1)c1ccccc1 [1,2-diphenylethyne]
Conditions | molar heat capacity at constant pressure [J/K/mol]
5 K | 0.4461 ± 0.018
7.76 K | 1.66 ± 0.04
8.24 K | 1.997 ± 0.046
8.4 K | 2.155 ± 0.049
8.56 K | 2.246 ± 0.051
8.71 K | 2.325 ± 0.053
8.87 K | 2.454 ± 0.056
9.02 K | 2.473 ± 0.056
9.17 K | 2.661 ± 0.06
9.32 K | 2.644 ± 0.059
9.46 K | 2.813 ± 0.063
9.61 K | 3.003 ± 0.067
9.75 K | 3.203 ± 0.071
9.9 K | 3.352 ± 0.074
10 K | 3.39 ± 0.076
10.04 K | 3.408 ± 0.076
10.23 K | 3.58 ± 0.079
10.46 K | 3.861 ± 0.085
10.7 K | 4.163 ± 0.091
10.94 K | 4.495 ± 0.098
11.19 K | 4.753 ± 0.1
11.43 K | 4.952 ± 0.11
11.67 K | 5.282 ± 0.11
11.92 K | 5.556 ± 0.12
12.16 K | 5.878 ± 0.13
12.4 K | 6.207 ± 0.13
12.65 K | 6.564 ± 0.14
12.9 K | 6.777 ± 0.14
13.14 K | 7.156 ± 0.15
13.39 K | 7.478 ± 0.16
13.65 K | 7.835 ± 0.17
13.9 K | 8.246 ± 0.17
14.15 K | 8.579 ± 0.18
14.4 K | 8.944 ± 0.19
14.66 K | 9.243 ± 0.19
14.91 K | 9.637 ± 0.2
15.16 K | 9.985 ± 0.21
15.42 K | 10.37 ± 0.22
15.67 K | 10.79 ± 0.23
15.93 K | 11.12 ± 0.23
16.19 K | 11.5 ± 0.24
16.44 K | 11.93 ± 0.25
16.7 K | 12.28 ± 0.26
16.96 K | 12.67 ± 0.26
17.22 K | 13.04 ± 0.27
17.48 K | 13.53 ± 0.28
17.74 K | 13.89 ± 0.29
18 K | 14.4 ± 0.3
18.26 K | 14.75 ± 0.3
18.52 K | 15.13 ± 0.31
18.78 K | 15.54 ± 0.32
19.05 K | 15.99 ± 0.33
19.31 K | 16.45 ± 0.34
19.57 K | 16.8 ± 0.35
19.83 K | 17.2 ± 0.35
20 K | 17.46 ± 0.36
20.1 K | 17.57 ± 0.36
20.52 K | 18.22 ± 0.17
21.06 K | 19.09 ± 0.17
21.59 K | 19.97 ± 0.18
22.13 K | 20.72 ± 0.19
22.66 K | 21.52 ± 0.19
23.2 K | 22.37 ± 0.2
23.74 K | 23.22 ± 0.21
24.28 K | 24.1 ± 0.21
24.82 K | 25 ± 0.22
25 K | 25.27 ± 0.22
25.36 K | 25.89 ± 0.23
25.9 K | 26.74 ± 0.23
26.44 K | 27.46 ± 0.24
26.99 K | 28.2 ± 0.24
27.53 K | 29.01 ± 0.25
28.08 K | 29.84 ± 0.26
28.62 K | 30.62 ± 0.26
29.17 K | 31.47 ± 0.27
29.72 K | 32.26 ± 0.27
30 K | 32.68 ± 0.27
30.27 K | 33.13 ± 0.28
30.82 K | 33.87 ± 0.28
31.36 K | 34.72 ± 0.29
31.91 K | 35.51 ± 0.3
32.46 K | 36.31 ± 0.3
33.02 K | 37.01 ± 0.31
33.57 K | 37.75 ± 0.31
34.12 K | 38.45 ± 0.32
34.67 K | 39.14 ± 0.33
35 K | 39.59 ± 0.33
35.23 K | 39.87 ± 0.33
35.78 K | 40.61 ± 0.34
36.33 K | 41.23 ± 0.34
36.89 K | 41.86 ± 0.35
37.44 K | 42.57 ± 0.35
38 K | 43.15 ± 0.36
38.56 K | 43.79 ± 0.36
39.11 K | 44.41 ± 0.37
39.67 K | 45.07 ± 0.37
40 K | 45.41 ± 0.38
40.22 K | 45.63 ± 0.38
40.78 K | 46.31 ± 0.38
41.33 K | 46.9 ± 0.39
41.89 K | 47.45 ± 0.39
42.45 K | 48.18 ± 0.4
43 K | 48.73 ± 0.4
43.56 K | 49.34 ± 0.41
44.12 K | 49.91 ± 0.41
44.67 K | 50.46 ± 0.42
45 K | 50.83 ± 0.42
45.23 K | 51.09 ± 0.42
45.79 K | 51.68 ± 0.43
46.35 K | 52.17 ± 0.43
46.91 K | 52.71 ± 0.43
47.47 K | 53.2 ± 0.44
48.03 K | 53.68 ± 0.44
48.59 K | 54.18 ± 0.45
49.15 K | 54.59 ± 0.45
49.71 K | 55.12 ± 0.45
50 K | 55.37 ± 0.46
50.26 K | 55.73 ± 0.46
50.82 K | 56.2 ± 0.46
51.38 K | 56.69 ± 0.47
51.94 K | 57.24 ± 0.47
52.5 K | 57.84 ± 0.48
53.06 K | 58.52 ± 0.48
53.62 K | 59.22 ± 0.49
54.18 K | 59.95 ± 0.49
54.74 K | 60.54 ± 0.5
55 K | 60.87 ± 0.5
55.3 K | 61.31 ± 0.5
55.87 K | 61.85 ± 0.51
56.43 K | 62.34 ± 0.51
56.99 K | 62.76 ± 0.52
57.55 K | 63.28 ± 0.52
58.11 K | 63.73 ± 0.52
58.67 K | 64.14 ± 0.53
59.23 K | 64.53 ± 0.53
59.8 K | 64.94 ± 0.53
60 K | 65.09 ± 0.54
60.36 K | 65.36 ± 0.54
60.92 K | 65.81 ± 0.54
61.48 K | 66.28 ± 0.54
62.04 K | 66.76 ± 0.55
62.6 K | 67.25 ± 0.55
63.16 K | 67.82 ± 0.56
63.73 K | 68.11 ± 0.56
64.29 K | 68.62 ± 0.56
64.85 K | 68.97 ± 0.57
65 K | 69.08 ± 0.57
65.42 K | 69.41 ± 0.57
65.98 K | 69.58 ± 0.57
66.54 K | 69.95 ± 0.57
67.11 K | 70.3 ± 0.58
67.67 K | 70.73 ± 0.58
68.23 K | 71.09 ± 0.58
68.8 K | 71.47 ± 0.59
69.36 K | 71.95 ± 0.59
69.92 K | 72.22 ± 0.59
70 K | 72.22 ± 0.59
70.61 K | 72.52 ± 0.59
71.41 K | 72.9 ± 0.6
72.21 K | 73.45 ± 0.6
73.01 K | 73.99 ± 0.61
73.82 K | 74.48 ± 0.61
74.62 K | 74.91 ± 0.61
75 K | 75.15 ± 0.62
75.42 K | 75.39 ± 0.62
76.23 K | 75.72 ± 0.62
77.03 K | 76.12 ± 0.62
77.83 K | 76.43 ± 0.63
78.64 K | 76.81 ± 0.63
79.44 K | 77.36 ± 0.63
80 K | 77.65 ± 0.64
80.24 K | 77.8 ± 0.64
81.05 K | 78.26 ± 0.64
81.85 K | 78.59 ± 0.64
82.56 K | 78.83 ± 0.65
82.65 K | 79 ± 0.65
83.36 K | 79.36 ± 0.65
83.46 K | 79.49 ± 0.65
84.16 K | 79.79 ± 0.65
84.26 K | 79.97 ± 0.66
84.96 K | 80.29 ± 0.66
85 K | 80.26 ± 0.66
85.77 K | 80.6 ± 0.66
86.57 K | 81.07 ± 0.66
87.37 K | 81.61 ± 0.67
88.17 K | 81.87 ± 0.67
88.98 K | 82.43 ± 0.68
89.78 K | 82.92 ± 0.68
90 K | 82.96 ± 0.69
90.58 K | 83.29 ± 0.7
91.39 K | 83.69 ± 0.7
92.19 K | 84.3 ± 0.7
92.99 K | 84.62 ± 0.71
93.8 K | 85.08 ± 0.71
94.6 K | 85.51 ± 0.71
95 K | 85.79 ± 0.72
95.4 K | 85.87 ± 0.72
96.21 K | 86.49 ± 0.72
97.01 K | 86.97 ± 0.72
97.81 K | 87.46 ± 0.73
98.61 K | 87.8 ± 0.73
99.42 K | 88.33 ± 0.74
100 K | 88.7 ± 0.74
100.22 K | 88.79 ± 0.74
101.02 K | 89.52 ± 0.74
101.82 K | 89.71 ± 0.75
102.62 K | 90.12 ± 0.75
103.42 K | 90.81 ± 0.76
104.22 K | 91.27 ± 0.76
105.03 K | 91.64 ± 0.76
105.84 K | 92.04 ± 0.77
106.64 K | 92.61 ± 0.77
107.45 K | 93.03 ± 0.77
108.25 K | 93.65 ± 0.78
109.06 K | 94.16 ± 0.78
109.87 K | 94.48 ± 0.78
110 K | 94.56 ± 0.79
110.68 K | 94.84 ± 0.79
111.49 K | 95.38 ± 0.79
112.3 K | 95.96 ± 0.8
113.12 K | 96.26 ± 0.8
113.93 K | 96.77 ± 0.8
114.74 K | 97.3 ± 0.81
115.56 K | 97.84 ± 0.81
116.37 K | 98.29 ± 0.81
117.19 K | 98.7 ± 0.82
118.01 K | 99.29 ± 0.82
118.83 K | 99.69 ± 0.82
119.65 K | 100.31 ± 0.83
120 K | 100.39 ± 0.83
120.47 K | 100.58 ± 0.83
121.29 K | 101.29 ± 0.84
122.11 K | 101.7 ± 0.84
